Assay results from PubChem BioAssay (NCI).
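Growth conditions: 96-well plates. Treatment: test compound, 48 hours, 5 concentrations. Analysis: linear interpolation between bracketing concentrations; unreached endpoints set to highest concentration. Abbreviation: GI50, concentration required for 50% inhibition of growth. At the TGI there is no net growth.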

How the values were obtained:
Assay in all cases: NCI tumour cell line growth inhibition, 48 h
HL-60(TB) leukemia = test system: HL-60(TB) leukemia
MALME-3M melanoma = test system: MALME-3M melanoma
COLO 205 colon = test system: COLO 205 colon
HS 578T breast = test system: HS 578T breast
SF-295 CNS = test system: SF-295 CNS
SNB-19 CNS = test system: SNB-19 CNS
HOP-92 NSCLC = test system: HOP-92 NSCLC
CAKI-1 renal = test system: CAKI-1 renal
K-562 leukemia = test system: K-562 leukemia
SR leukemia = test system: SR leukemia
HCT-116 colon = test system: HCT-116 colon
BT-549 breast = test system: BT-549 breast
T-47D breast = test system: T-47D breast
IGROV1 ovarian = test system: IGROV1 ovarian
RPMI-8226 leukemia = test system: RPMI-8226 leukemia
OVCAR-8 ovarian = test system: OVCAR-8 ovarian
EKVX NSCLC = test system: EKVX NSCLC
NCI/ADR-RES ovarian = test system: NCI/ADR-RES ovarian
NCI-H23 lung = test system: NCI-H23 lung
SK-OV-3 ovarian = test system: SK-OV-3 ovarian
NCI-H522 lung = test system: NCI-H522 lung
KM12 colon = test system: KM12 colon
LOX IMVI melanoma = test system: LOX IMVI melanoma
RXF 393 renal = test system: RXF 393 renal
MCF7 breast = test system: MCF7 breast
SF-539 CNS = test system: SF-539 CNS
HCC-2998 colon = test system: HCC-2998 colon
UO-31 renal = test system: UO-31 renal
MDA-MB-231 breast = test system: MDA-MB-231 breast
HCT-15 colon = test system: HCT-15 colon
OVCAR-4 ovarian = test system: OVCAR-4 ovarian
A498 renal = test system: A498 renal
NCI-H226 lung = test system: NCI-H226 lung
TK-10 renal = test system: TK-10 renal
CCRF-CEM leukemia = test system: CCRF-CEM leukemia
HOP-62 NSCLC = test system: HOP-62 NSCLC
U251 CNS = test system: U251 CNS
SK-MEL-2 melanoma = test system: SK-MEL-2 melanoma
SK-MEL-28 melanoma = test system: SK-MEL-28 melanoma
OVCAR-3 ovarian = test system: OVCAR-3 ovarian
SNB-75 CNS = test system: SNB-75 CNS
SN12C renal = test system: SN12C renal
SW-620 colon = test system: SW-620 colon
SF-268 CNS = test system: SF-268 CNS
NCI-H460 lung = test system: NCI-H460 lung
SK-MEL-5 melanoma = test system: SK-MEL-5 melanoma
786-0 renal = test system: 786-0 renal
M14 melanoma = test system: M14 melanoma
DU-145 prostate = test system: DU-145 prostate
ACHN renal = test system: ACHN renal
UACC-62 melanoma = test system: UACC-62 melanoma
MOLT-4 leukemia = test system: MOLT-4 leukemia
MDA-MB-435 = test system: MDA-MB-435

Q: What does the source list for `CNC(=O)c1cc(Oc2ccc3nc(NC(=O)Nc4ccc(Cl)c(Cl)c4)sc3c2)ccn1`?
A: GI50 (HL-60(TB) leukemia): > 100 µM; TGI (HL-60(TB) leukemia): > 100 µM; GI50 (MALME-3M melanoma): 1.51 µM; TGI (MALME-3M melanoma): 3.3 µM; GI50 (COLO 205 colon): 4.25 µM; TGI (COLO 205 colon): > 100 µM; GI50 (HS 578T breast): 2.77 µM; TGI (HS 578T breast): 6.66 µM; GI50 (SF-295 CNS): 1.53 µM; TGI (SF-295 CNS): 3.13 µM; GI50 (SNB-19 CNS): 1.99 µM; TGI (SNB-19 CNS): 3.98 µM; GI50 (HOP-92 NSCLC): 2.66 µM; TGI (HOP-92 NSCLC): 5.39 µM; GI50 (CAKI-1 renal): 2.46 µM; TGI (CAKI-1 renal): 6.3 µM; GI50 (K-562 leukemia): > 100 µM; TGI (K-562 leukemia): > 100 µM; GI50 (SR leukemia): 6.47 µM; TGI (SR leukemia): > 100 µM; GI50 (HCT-116 colon): 1.88 µM; TGI (HCT-116 colon): 4.35 µM; GI50 (BT-549 breast): 4.88 µM; TGI (BT-549 breast): > 100 µM; GI50 (T-47D breast): 2.65 µM; TGI (T-47D breast): 6.36 µM; GI50 (IGROV1 ovarian): 2.55 µM; TGI (IGROV1 ovarian): 6.75 µM; GI50 (RPMI-8226 leukemia): 3.66 µM; TGI (RPMI-8226 leukemia): > 100 µM; GI50 (OVCAR-8 ovarian): 2.36 µM; TGI (OVCAR-8 ovarian): 5.27 µM; GI50 (EKVX NSCLC): 3.3 µM; TGI (EKVX NSCLC): > 100 µM; GI50 (NCI/ADR-RES ovarian): 2.3 µM; TGI (NCI/ADR-RES ovarian): 5.09 µM; GI50 (NCI-H23 lung): 2.78 µM; TGI (NCI-H23 lung): > 100 µM; GI50 (SK-OV-3 ovarian): 2.24 µM; TGI (SK-OV-3 ovarian): 4.09 µM; GI50 (NCI-H522 lung): 4.09 µM; TGI (NCI-H522 lung): > 100 µM; GI50 (KM12 colon): 3 µM; TGI (KM12 colon): > 100 µM; GI50 (LOX IMVI melanoma): 1.82 µM; TGI (LOX IMVI melanoma): 3.52 µM; GI50 (RXF 393 renal): 1.84 µM; TGI (RXF 393 renal): 3.65 µM; GI50 (MCF7 breast): 2.65 µM; TGI (MCF7 breast): > 100 µM; GI50 (SF-539 CNS): 2.17 µM; TGI (SF-539 CNS): 4.69 µM; GI50 (HCC-2998 colon): 5.04 µM; TGI (HCC-2998 colon): > 100 µM; GI50 (UO-31 renal): 2.08 µM; TGI (UO-31 renal): 3.96 µM; GI50 (MDA-MB-231 breast): 2.15 µM; TGI (MDA-MB-231 breast): 6.43 µM; GI50 (HCT-15 colon): 3.71 µM; TGI (HCT-15 colon): > 100 µM; GI50 (OVCAR-4 ovarian): 2.06 µM; TGI (OVCAR-4 ovarian): 4.03 µM; GI50 (A498 renal): 2.93 µM; TGI (A498 renal): 6.64 µM; GI50 (NCI-H226 lung): 2.28 µM; TGI (NCI-H226 lung): 4.58 µM; GI50 (TK-10 renal): 3.46 µM; TGI (TK-10 renal): 9.26 µM; GI50 (CCRF-CEM leukemia): > 100 µM; TGI (CCRF-CEM leukemia): > 100 µM; GI50 (HOP-62 NSCLC): 2.24 µM; TGI (HOP-62 NSCLC): 4 µM; GI50 (U251 CNS): 1.83 µM; TGI (U251 CNS): 3.46 µM; GI50 (SK-MEL-2 melanoma): 2.56 µM; TGI (SK-MEL-2 melanoma): 5.97 µM; GI50 (SK-MEL-28 melanoma): 1.74 µM; TGI (SK-MEL-28 melanoma): 3.56 µM; GI50 (OVCAR-3 ovarian): 2.31 µM; TGI (OVCAR-3 ovarian): 5.38 µM; GI50 (SNB-75 CNS): 1.73 µM; TGI (SNB-75 CNS): 3.61 µM; GI50 (SN12C renal): 3.92 µM; TGI (SN12C renal): > 100 µM; GI50 (SW-620 colon): 8.11 µM; TGI (SW-620 colon): > 100 µM; GI50 (SF-268 CNS): 1.98 µM; TGI (SF-268 CNS): 4.21 µM; GI50 (NCI-H460 lung): 2.43 µM; TGI (NCI-H460 lung): 5.32 µM; GI50 (SK-MEL-5 melanoma): 2.24 µM; TGI (SK-MEL-5 melanoma): 5.58 µM; GI50 (786-0 renal): 2.26 µM; TGI (786-0 renal): 5.11 µM; GI50 (M14 melanoma): 2.13 µM; TGI (M14 melanoma): 4.74 µM; GI50 (DU-145 prostate): 2.45 µM; TGI (DU-145 prostate): 6.29 µM; GI50 (ACHN renal): 2.1 µM; TGI (ACHN renal): 5.56 µM; GI50 (UACC-62 melanoma): 2.32 µM; TGI (UACC-62 melanoma): 7.76 µM; GI50 (MOLT-4 leukemia): > 100 µM; TGI (MOLT-4 leukemia): > 100 µM; GI50 (MDA-MB-435): 2.02 µM; TGI (MDA-MB-435): 4.62 µM
